Assay results taken from patent publication US20080009418A1, “Selective Inhibitors” (Alchemia LTD., priority 2004, published 2008).

Assays:
Conditions in all cases: compound at 10 μM
Mouse urotensin (mUR2) = molecular target: T1, Mouse urotensin (mUR2) (Mus musculus, UniProt Q8VIH9); assay: Radioligand binding, mouse urotensin mUR2 membranes, FlashPlate, [125I]-Urotensin II
T1 construct: purchased Perkin Elmer Biosignal
T1 sequence (Q8VIH9 1-385): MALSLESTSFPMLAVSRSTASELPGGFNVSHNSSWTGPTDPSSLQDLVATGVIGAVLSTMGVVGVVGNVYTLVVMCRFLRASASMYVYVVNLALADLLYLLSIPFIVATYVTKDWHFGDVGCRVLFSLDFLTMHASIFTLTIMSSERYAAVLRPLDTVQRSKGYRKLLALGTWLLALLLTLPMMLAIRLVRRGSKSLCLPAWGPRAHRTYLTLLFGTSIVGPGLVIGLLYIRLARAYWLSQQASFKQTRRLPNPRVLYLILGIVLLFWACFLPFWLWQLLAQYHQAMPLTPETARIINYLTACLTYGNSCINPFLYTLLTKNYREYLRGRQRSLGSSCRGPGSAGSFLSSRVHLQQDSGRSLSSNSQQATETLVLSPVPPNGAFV
Procedure, shortened: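 Cloned mouse urotensin (mUR2) receptor membranes from Perkin Elmer Biosignal were immobilized in FlashPlate microplates using a proprietary coating. Each well got 19.5 μl buffer, then 0.5 μl of DMSO, reference ligand, or compound. Adding 5 μl of [125I]-Urotensin II, diluted to 5× final concentration in binding buffer, started binding. Plates were sealed with TopSeal-A and incubated 1 hour at room temperature in the dark. Wells were counted for 30 seconds each on a TopCount after a 60-second delay, and percentage inhibition was calculated.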

[1] = molecular target: T2, Human neuropeptide Y (NPY-Y1) (Homo sapiens, UniProt P25929); assay: Radioligand binding, human neuropeptide Y NPY-Y1 membranes, FlashPlate, [125I]-PYY
T2 construct: purchased Perkin Elmer Biosignal
T2 sequence (P25929 1-384): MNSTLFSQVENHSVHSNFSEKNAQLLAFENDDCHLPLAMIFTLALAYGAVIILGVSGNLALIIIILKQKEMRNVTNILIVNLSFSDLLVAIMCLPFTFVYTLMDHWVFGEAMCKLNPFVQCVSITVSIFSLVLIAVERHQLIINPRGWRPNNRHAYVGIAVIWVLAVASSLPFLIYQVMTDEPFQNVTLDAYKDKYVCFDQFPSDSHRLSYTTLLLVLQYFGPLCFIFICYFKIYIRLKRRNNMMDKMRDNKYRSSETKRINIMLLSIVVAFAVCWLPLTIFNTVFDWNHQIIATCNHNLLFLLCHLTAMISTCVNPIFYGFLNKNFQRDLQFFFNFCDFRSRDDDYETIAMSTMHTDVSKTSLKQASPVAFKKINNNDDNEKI
Procedure, shortened: (§1)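 Cloned human receptor membranes were coated onto FlashPlate wells and incubated with radioligand and compound (added from a 0.5 mM DMSO daughter plate) for 1 hour at room temperature in the dark. Scintillation counting gave percent inhibition, with DMSO defining total and reference ligand defining non-specific binding.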

Human κ-Opioid (KOP) = molecular target: T3, Human κ-Opioid (KOP) (Homo sapiens, UniProt P41145); assay: Radioligand binding, human κ-opioid (KOP) membranes, filtration, [3H]-Diprenorphine
T3 construct: purchased Perkin Elmer Biosignal
Procedure, shortened: (§2)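 Percent inhibition of radioligand binding measured on recombinant human membranes: NK1 with [125I]-Substance P, KOP with [3H]-Diprenorphine. Incubation 1 h at room temperature, then harvest onto 0.3% PEI-soaked filters, cold Tris-HCl pH 7.4 washes and scintillation counting; non-specific binding from reference ligand wells.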

Human δ-opioid (DOP) = molecular target: T4, Human δ-opioid (DOP) (Homo sapiens, UniProt P41143); assay: Radioligand binding, human δ-opioid (DOP) membranes, FlashPlate, [3H]-Bremazocine
T4 construct: purchased Perkin Elmer Biosignal
Procedure, shortened: as §1

Human μ-opioid (MOP) = molecular target: T5, Human μ-opioid (MOP) (Homo sapiens, UniProt P35372); assay: Radioligand binding, human μ-opioid (MOP) membranes, FlashPlate, [3H]-Naloxone
T5 construct: purchased Perkin Elmer Biosignal
Procedure, shortened: as §1

Human Melanocortin (MC3) = molecular target: T6, Human Melanocortin (MC3) (Homo sapiens, UniProt P41968); assay: Radioligand binding, human melanocortin MC3 membranes, FlashPlate, [125I]-NDP-αMSH
T6 construct: purchased Perkin Elmer Biosignal
Procedure, shortened: as §1

Human opioid (ORL1) = molecular target: T7, Human opioid (ORL1) (Homo sapiens, UniProt P41146); assay: Radioligand binding, human opioid ORL1 membranes, FlashPlate, [125I]-Nociceptin
T7 construct: purchased Perkin Elmer Biosignal
Procedure, shortened: as §1

[2] = molecular target: T8, Human melanin-concentrating hormone (MCH1) (Homo sapiens, UniProt Q99705); assay: Radioligand binding, human melanin-concentrating hormone MCH1 membranes, FlashPlate, [125I]-S36057
T8 construct: purchased Perkin Elmer Biosignal
Procedure, shortened: as §1

Human melanocortin (MC5) = molecular target: T9, Human melanocortin (MC5) (Homo sapiens, UniProt P33032); assay: Radioligand binding, human melanocortin MC5 membranes, FlashPlate, [125I]-NDP-αMSH
T9 construct: purchased Perkin Elmer Biosignal
Procedure, shortened: as §1

Human neurokinin (NK1) = molecular target: T10, Human neurokinin (NK1) (Homo sapiens, UniProt P25103); assay: Radioligand binding, human neurokinin NK1 membranes, filtration, [125I]-Substance P
T10 construct: purchased Perkin Elmer Biosignal
Procedure, shortened: as §2

Human Melanocortin (MC4) = molecular target: T11, Human Melanocortin (MC4) (Homo sapiens, UniProt P32245); assay: Radioligand binding, human melanocortin MC4 membranes, FlashPlate, [125I]-NDP-αMSH
T11 construct: purchased Perkin Elmer Biosignal
Procedure, shortened: as §1

T3 sequence (P41145 whole entry): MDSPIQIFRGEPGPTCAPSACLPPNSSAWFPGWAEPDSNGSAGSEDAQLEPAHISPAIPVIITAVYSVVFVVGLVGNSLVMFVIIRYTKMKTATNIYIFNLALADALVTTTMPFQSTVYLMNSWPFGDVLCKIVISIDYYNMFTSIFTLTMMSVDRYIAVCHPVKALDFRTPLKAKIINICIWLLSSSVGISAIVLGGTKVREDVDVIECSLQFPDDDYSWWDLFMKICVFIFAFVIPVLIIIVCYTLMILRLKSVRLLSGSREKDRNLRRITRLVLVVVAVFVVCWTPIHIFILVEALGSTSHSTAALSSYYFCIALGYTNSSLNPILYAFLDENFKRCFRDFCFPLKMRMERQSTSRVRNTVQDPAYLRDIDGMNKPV
T8 sequence (Q99705 whole entry): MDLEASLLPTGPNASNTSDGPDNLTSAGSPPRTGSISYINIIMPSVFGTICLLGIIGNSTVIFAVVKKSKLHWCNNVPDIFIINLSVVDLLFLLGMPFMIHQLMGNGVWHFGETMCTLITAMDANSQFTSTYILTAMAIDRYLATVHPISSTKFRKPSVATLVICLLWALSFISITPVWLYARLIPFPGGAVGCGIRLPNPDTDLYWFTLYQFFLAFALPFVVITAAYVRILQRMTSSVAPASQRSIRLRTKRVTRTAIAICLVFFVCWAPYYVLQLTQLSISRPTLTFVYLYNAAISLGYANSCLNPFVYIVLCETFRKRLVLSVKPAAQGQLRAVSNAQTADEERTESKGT
T10 sequence (P25103 whole entry): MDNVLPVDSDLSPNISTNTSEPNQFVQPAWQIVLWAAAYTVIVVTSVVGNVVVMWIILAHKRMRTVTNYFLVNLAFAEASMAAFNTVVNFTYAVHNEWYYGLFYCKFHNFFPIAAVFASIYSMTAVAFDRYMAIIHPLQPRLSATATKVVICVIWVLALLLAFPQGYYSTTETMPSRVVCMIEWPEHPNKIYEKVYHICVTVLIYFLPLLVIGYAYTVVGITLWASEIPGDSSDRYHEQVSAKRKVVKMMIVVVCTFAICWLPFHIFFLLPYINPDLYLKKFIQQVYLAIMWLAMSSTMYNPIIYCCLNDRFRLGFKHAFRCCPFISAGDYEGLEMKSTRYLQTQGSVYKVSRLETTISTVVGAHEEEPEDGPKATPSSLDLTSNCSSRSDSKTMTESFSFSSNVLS
T11 sequence (P32245 whole entry): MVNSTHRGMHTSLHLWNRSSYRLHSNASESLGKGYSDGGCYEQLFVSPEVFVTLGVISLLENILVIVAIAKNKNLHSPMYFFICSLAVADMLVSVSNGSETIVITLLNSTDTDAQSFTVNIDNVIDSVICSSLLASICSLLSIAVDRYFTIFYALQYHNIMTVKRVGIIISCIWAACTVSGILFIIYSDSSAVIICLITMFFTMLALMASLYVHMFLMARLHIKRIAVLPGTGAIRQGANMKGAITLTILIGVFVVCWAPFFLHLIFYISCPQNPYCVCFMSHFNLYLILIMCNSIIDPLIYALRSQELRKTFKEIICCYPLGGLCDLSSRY
T6 sequence (P41968 whole entry): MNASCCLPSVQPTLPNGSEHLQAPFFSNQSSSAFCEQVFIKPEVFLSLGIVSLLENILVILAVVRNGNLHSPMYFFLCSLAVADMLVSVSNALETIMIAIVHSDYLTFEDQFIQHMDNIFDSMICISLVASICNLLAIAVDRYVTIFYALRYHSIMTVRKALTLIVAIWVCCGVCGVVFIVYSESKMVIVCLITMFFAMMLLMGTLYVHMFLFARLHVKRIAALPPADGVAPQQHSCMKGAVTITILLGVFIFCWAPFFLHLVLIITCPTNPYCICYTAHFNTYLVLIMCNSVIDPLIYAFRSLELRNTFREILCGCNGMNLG
T4 sequence (P41143 whole entry): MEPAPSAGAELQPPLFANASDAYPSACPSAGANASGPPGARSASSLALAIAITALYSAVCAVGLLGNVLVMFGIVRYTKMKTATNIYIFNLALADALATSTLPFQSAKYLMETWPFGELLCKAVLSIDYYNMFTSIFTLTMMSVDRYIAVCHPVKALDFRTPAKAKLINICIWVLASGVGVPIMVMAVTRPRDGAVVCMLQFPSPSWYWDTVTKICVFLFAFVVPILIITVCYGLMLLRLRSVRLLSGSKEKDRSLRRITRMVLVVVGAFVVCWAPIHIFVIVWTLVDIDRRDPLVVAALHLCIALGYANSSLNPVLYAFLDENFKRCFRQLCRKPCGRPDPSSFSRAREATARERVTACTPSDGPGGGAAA
T7 sequence (P41146 whole entry): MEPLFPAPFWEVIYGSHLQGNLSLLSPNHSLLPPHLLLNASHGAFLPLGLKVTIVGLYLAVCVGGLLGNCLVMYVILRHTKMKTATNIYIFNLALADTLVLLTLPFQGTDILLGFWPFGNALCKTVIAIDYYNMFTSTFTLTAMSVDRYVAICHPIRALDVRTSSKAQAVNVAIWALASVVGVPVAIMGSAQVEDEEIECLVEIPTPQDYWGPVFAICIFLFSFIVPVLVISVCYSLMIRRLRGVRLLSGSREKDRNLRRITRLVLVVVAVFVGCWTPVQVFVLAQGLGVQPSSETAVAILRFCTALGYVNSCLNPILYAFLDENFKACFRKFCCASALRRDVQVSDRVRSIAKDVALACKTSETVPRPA
T5 sequence (P35372 whole entry): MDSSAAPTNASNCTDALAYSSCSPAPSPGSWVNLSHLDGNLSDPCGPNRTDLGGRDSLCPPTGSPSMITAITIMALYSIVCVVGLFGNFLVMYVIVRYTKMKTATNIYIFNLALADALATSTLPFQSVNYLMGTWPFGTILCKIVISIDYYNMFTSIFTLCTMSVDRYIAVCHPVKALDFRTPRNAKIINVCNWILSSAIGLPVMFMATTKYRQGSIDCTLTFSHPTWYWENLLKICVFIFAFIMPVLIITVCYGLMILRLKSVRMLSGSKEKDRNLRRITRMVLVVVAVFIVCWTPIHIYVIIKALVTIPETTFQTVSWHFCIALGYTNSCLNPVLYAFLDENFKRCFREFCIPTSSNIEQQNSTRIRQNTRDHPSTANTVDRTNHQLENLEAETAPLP
T9 sequence (P33032 whole entry): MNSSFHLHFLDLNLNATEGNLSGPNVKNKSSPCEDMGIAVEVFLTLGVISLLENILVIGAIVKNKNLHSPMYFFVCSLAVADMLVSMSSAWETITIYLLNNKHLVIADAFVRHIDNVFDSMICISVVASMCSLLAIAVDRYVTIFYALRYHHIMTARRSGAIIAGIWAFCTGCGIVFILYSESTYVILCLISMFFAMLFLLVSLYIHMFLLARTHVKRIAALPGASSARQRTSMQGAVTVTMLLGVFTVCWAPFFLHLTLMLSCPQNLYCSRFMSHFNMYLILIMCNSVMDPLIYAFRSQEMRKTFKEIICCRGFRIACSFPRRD

## COC[C@H]1OC(OCc2ccc(Cl)cc2)[C@H](NC(=O)CCCNC(=N)N)[C@@H](OCc2ccc(-c3ccccc3)cc2)[C@@H]1O (stereo partly drawn) [compound 30]
Mouse urotensin (mUR2); mouse urotensin mUR2 membranes
  A11 radioligand binding inhibition: − (“−” indicates less than 50% inhibition at 10 μM)
[1]; human NPY-Y1 membranes
  A9 radioligand binding inhibition: − (“−” indicates less than 50% inhibition at 10 μM)
Human κ-Opioid (KOP); human κ-opioid (KOP) membranes
  A2 radioligand binding inhibition: − (“−” indicates less than 50% inhibition at 10 μM)
Human δ-opioid (DOP); human δ-opioid (DOP) membranes
  A1 radioligand binding inhibition: − (“−” indicates less than 50% inhibition at 10 μM)
Human μ-opioid (MOP); human μ-opioid (MOP) membranes
  A7 radioligand binding inhibition: + (“+” indicates greater than 50% inhibition at 10 μM)
Human Melanocortin (MC3); human melanocortin MC3 membranes
  A3 radioligand binding inhibition: + (“+” indicates greater than 50% inhibition at 10 μM)
Human opioid (ORL1); human ORL1 membranes
  A10 radioligand binding inhibition: − (“−” indicates less than 50% inhibition at 10 μM)
[2]; human MCH1 membranes
  A6 radioligand binding inhibition: + (“+” indicates greater than 50% inhibition at 10 μM)
Human melanocortin (MC5); human melanocortin MC5 membranes
  A5 radioligand binding inhibition: + (“+” indicates greater than 50% inhibition at 10 μM)
Human neurokinin (NK1); human neurokinin NK1 membranes
  A8 radioligand binding inhibition: + (“+” indicates greater than 50% inhibition at 10 μM)
Human Melanocortin (MC4); human melanocortin MC4 membranes
  A4 radioligand binding inhibition: + (“+” indicates greater than 50% inhibition at 10 μM)

## NCCC(=O)NC1C(OCc2ccc(Cl)cc2)OC(COCc2ccc(Cl)cc2)C(O)C1OCc1ccc(Cl)cc1 (single isomer, unassigned) [compound 475]
Mouse urotensin (mUR2); [125I]-Urotensin II, mouse mUR2 membranes
  A11: inhibition of radioligand binding: − (“−” indicates less than 50% inhibition at 10 μM)
[1]; [125I]-PYY, human NPY-Y1 membranes
  A9: inhibition of radioligand binding: − (“−” indicates less than 50% inhibition at 10 μM)
Human κ-Opioid (KOP); [3H]-Diprenorphine, human KOP membranes
  A2: inhibition of radioligand binding: − (“−” indicates less than 50% inhibition at 10 μM)
Human δ-opioid (DOP); [3H]-Bremazocine, human DOP membranes
  A1: inhibition of radioligand binding: − (“−” indicates less than 50% inhibition at 10 μM)
Human μ-opioid (MOP); [3H]-Naloxone, human MOP membranes
  A7: inhibition of radioligand binding: − (“−” indicates less than 50% inhibition at 10 μM)
Human Melanocortin (MC3); [125I]-NDP-αMSH, human MC3 membranes
  A3: inhibition of radioligand binding: − (“−” indicates less than 50% inhibition at 10 μM)
Human opioid (ORL1); [125I]-Nociceptin, human ORL1 membranes
  A10: inhibition of radioligand binding: − (“−” indicates less than 50% inhibition at 10 μM)
[2]; [125I]-S36057, human MCH1 membranes
  A6: inhibition of radioligand binding: − (“−” indicates less than 50% inhibition at 10 μM)
Human melanocortin (MC5); [125I]-NDP-αMSH, human MC5 membranes
  A5: inhibition of radioligand binding: + (“+” indicates greater than 50% inhibition at 10 μM)
Human neurokinin (NK1); [125I]-Substance P, human NK1 membranes
  A8: inhibition of radioligand binding: + (“+” indicates greater than 50% inhibition at 10 μM)
Human Melanocortin (MC4); [125I]-NDP-αMSH, human MC4 membranes
  A4: inhibition of radioligand binding: + (“+” indicates greater than 50% inhibition at 10 μM)

## CO[C@H]1[C@H](O)[C@@H](COCc2ccc3ccccc3c2)OC(OCc2ccc(Cl)cc2)[C@@H]1NC(=O)C(N)CN (stereo partly drawn) [compound 351]
Mouse urotensin (mUR2); [125I]-Urotensin II
  A11: inhibition of radioligand binding, mouse urotensin (mUR2): − (“−” indicates less than 50% inhibition at 10 μM)
[1]; [125I]-PYY
  A9: inhibition of radioligand binding, human neuropeptide Y (NPY-Y1): − (“−” indicates less than 50% inhibition at 10 μM)
Human κ-Opioid (KOP); [3H]-Diprenorphine
  A2: inhibition of radioligand binding, human κ-opioid (KOP): − (“−” indicates less than 50% inhibition at 10 μM)
Human δ-opioid (DOP); [3H]-Bremazocine
  A1: inhibition of radioligand binding, human δ-opioid (DOP): − (“−” indicates less than 50% inhibition at 10 μM)
Human μ-opioid (MOP); [3H]-Naloxone
  A7: inhibition of radioligand binding, human μ-opioid (MOP): − (“−” indicates less than 50% inhibition at 10 μM)
Human Melanocortin (MC3); [125I]-NDP-αMSH
  A3: inhibition of radioligand binding, human melanocortin (MC3): − (“−” indicates less than 50% inhibition at 10 μM)
Human opioid (ORL1); [125I]-Nociceptin
  A10: inhibition of radioligand binding, human opioid (ORL1): − (“−” indicates less than 50% inhibition at 10 μM)
[2]; [125I]-S36057
  A6: inhibition of radioligand binding, human melanin-concentrating hormone (MCH1): − (“−” indicates less than 50% inhibition at 10 μM)
Human melanocortin (MC5); [125I]-NDP-αMSH
  A5: inhibition of radioligand binding, human melanocortin (MC5): − (“−” indicates less than 50% inhibition at 10 μM)
Human neurokinin (NK1); [125I]-Substance P
  A8: inhibition of radioligand binding, human neurokinin (NK1): + (“+” indicates greater than 50% inhibition at 10 μM)
Human Melanocortin (MC4); [125I]-NDP-αMSH
  A4: inhibition of radioligand binding, human melanocortin (MC4): − (“−” indicates less than 50% inhibition at 10 μM)
